Experimental data taken from patent US10426815B2, “Prevention and treatment of itch with an MRGPR antagonist” (THE GENERAL HOSPITAL CORPORATION, priority 2015, dated 2019).
Ends that are not written are not given here.

Tests used:
[1] = system: mice (itch, scratching bouts); assay: Mouse cheek model, scratching bouts; assay type: in vivo; conditions: intradermal injection into the cheek, 10 μl
Protocol: The mouse cheek model was used to evaluate scratching behavior in Mrgpr cluster Δ−/− and NK1−/− mice. Mice used for behavioral studies were 2 to 3 months old, 20-30 g. Mice were habituated for 30 minutes/day for 3 days prior and for 15 minutes on the day of the study. 10 μl of each compound were delivered by a 31G needle to the cheek. The mice were not shaved prior to injections to avoid irritation. All experiments were performed at consistent times during the day (9:00 am to 2:00 pm) and under the same conditions and in groups of at least 7 mice. The mice were videotaped in a soundproof environment minimize distraction. Recordings were scored for the number of scratching bouts that occur over 1 minute intervals during 25 minute observation periods and the investigator was not aware of the group allocation during scoring the study and behavioral analysis. A scratching bout was initiated by lifting of the hind paw to the area of injection, and ended by returning of the hind paw to the floor or to the mouth. […]
For behavioral studies, average numbers of scratching bouts were compared across groups using one-way ANOVA. Pair-wise comparisons were performed using student t test after correcting p values for multiple comparisons using the Bonferroni procedure. For DRG studies and mast cell degranulation studies, unpaired student t-test was used. Differences were considered to be statistically significant for P<0.05. Data analysis was performed using PRISM 6.

MrgX1 (human MRGPRX1) = molecular target: T1, MrgX1 (human MRGPRX1) (Homo sapiens, UniProt Q96LB2); assay: Calcium imaging of cells transfected with the GPCR (Table 1); assay type: cell-based; conditions: SP 10 μM (FIG. 9); chloroquine 100 μM (FIG. 7c)
T1 construct: expressed in transfected cells; host or cells: HeLa cells, pcDNA3.1(-)
T1 sequence (Q96LB2 whole entry): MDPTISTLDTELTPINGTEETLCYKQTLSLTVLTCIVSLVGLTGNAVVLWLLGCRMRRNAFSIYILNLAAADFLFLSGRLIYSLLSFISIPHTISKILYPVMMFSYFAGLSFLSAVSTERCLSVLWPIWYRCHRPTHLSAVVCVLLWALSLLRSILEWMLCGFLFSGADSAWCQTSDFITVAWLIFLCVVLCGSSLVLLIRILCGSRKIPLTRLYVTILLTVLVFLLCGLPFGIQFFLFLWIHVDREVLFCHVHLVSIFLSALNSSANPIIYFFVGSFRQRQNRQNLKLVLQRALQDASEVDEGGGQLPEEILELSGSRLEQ
Protocol: (§1) Human NK1 cDNA was obtained from LIFE Technologies, PCR cloned with Xho I-Hind III ends and cloned into pcDNA3.1(−). Mouse NK2 and NK3 expression-ready vectors were obtained from […] (Piscataway, N.J.). All other Mrgprs (human MRGPRX1, human MRGPRX2, human MRGPRX3, human MRGPRX4, mouse MrgprA2a, mouse MrgprA2b, mouse MrgprA3, mouse MrgprA4, mouse MrgprA9, mouse MrgprA10, mouse MrgprB4 and mouse MrgprB5) were cloned by PCR from genomic DNAs and inserted into pcDNA3.1 (−).
(§2) 10 μg of expression vector (human MRGPRX2, mouse MrgprA1 or NK1) and 10 μl of LIPOFECTAMINE 2000 transfection reagent were diluted into 0.5 ml of DMEM and separately left at room temperature (RT) for 5 min. They were then mixed and incubated at RT for 20 minutes prior to being added to HeLa cells. HeLa cells were grown to confluence, trypsinized and 1×10^6 cells were pelleted in a 15 ml tube by centrifugation at 1000 rpm for 5 minutes. The DMEM-LIPOFECTAMINE 2000-DNA mixture (1 ml) was then added to the cell pellet, suspended and incubated at RT for 5 minutes. 2 ml of complete DMEM with 10% FBS without antibiotics were added to the tube, mixed by inverting the tube, plated into a 96-well glass bottom plate at 50,000 cells/well, and placed in a 37° C. CO2 incubator for 3 hours. HeLa cells transfected with salmon sperm DNA were plated as a control. The medium was changed after 3 hours and left in the incubator. 24 hours after transfection, the medium in the wells was removed and 100 μl of complete DMEM containing 2 μM of FURA-2 were added to each well and left at room temperature in the dark for 1 hr.
(§3) Calcium imaging was performed immediately after loading cells with Fura-2, using a ZEISS Axiovert 200M microscope platform equipped with a flipping filter wheel for ratiometric imaging. Axiovision software, version 4.6 was used for calcium image analysis of the cells excited at 340 nm and 380 nm. Agonists were added at 15 seconds after the start of the excitation procedure. Antagonists were added five minutes before imaging with the agonists. Images were taken every 5 seconds, including at zero time, during a 90 second period or longer if required. The software later analyzed all images taken during each excitation period. Ratiometric changes were measured in 10-20 cells in each individual experiment. An average of the fluorescence of the cells in each image was calculated and plotted against time in seconds.

MrgA3 (mouse MrgprA3) = molecular target: T2, MrgA3 (mouse MrgprA3) (Mus musculus, UniProt Q91WW3); assay: as above; assay type: cell-based; conditions: chloroquine 100 μM (FIG. 7c)
T2 construct: expressed in transfected cells; host or cells: HeLa cells, pcDNA3.1(-)
T2 sequence (Q91WW3 1-302): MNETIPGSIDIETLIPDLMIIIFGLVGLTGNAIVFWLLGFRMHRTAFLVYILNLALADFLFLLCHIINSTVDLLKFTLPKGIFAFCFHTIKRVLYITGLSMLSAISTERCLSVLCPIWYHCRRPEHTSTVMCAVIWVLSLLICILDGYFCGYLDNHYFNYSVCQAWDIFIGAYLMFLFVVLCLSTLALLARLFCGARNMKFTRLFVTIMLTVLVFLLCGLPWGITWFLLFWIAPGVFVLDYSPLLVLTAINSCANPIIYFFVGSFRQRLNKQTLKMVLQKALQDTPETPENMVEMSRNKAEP
Protocol: as §1, §2, §3

Row | Compound | provocation of itch (scratching bouts) by the injected substance, WT mice [1] | activation of human MRGPRX1 by the substance (in words) (MrgX1 (human MRGPRX1)) | activation of mouse MrgprA3 by the substance (in words) (MrgA3 (mouse MrgprA3))
1 | LL-37: antimicrobial peptide that activates MRGPRX2 | don't cause itch | – | –
2 | PAMP: PAMP peptide of the behavioral studies, length not stated (ARLDVASEFRKKWNKWALSR; ends and bridges not checked; UniProt P35318 22-41, looked up) | don't cause itch | – | –
3 | CCN(CC)CCCC(C)Nc1ccnc2cc(Cl)ccc12 (stereo not shown) [Chloroquine, chloroquine] | – | activates | activates
